Reference: patent US12275734B1, “Pleuromutilin onium salt derivative containing a 3H-imidazo[4,5-c]pyridine side chain, and a preparation method and application thereof” (SHAANXI UNIVERSITY OF SCIENCE AND TECHNOLOGY, priority 2024, dated 2025)
In brackets after ≈: the same amount, converted by molar mass. Where two headings read alike, the source gives them in different places.

Columns and labels:
A. baumannii ATCC 19606 = experiment: MIC, broth microdilution; assay type: cell-based; conditions: Acinetobacter baumannii
Procedure, shortened: (§1)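 Broth microdilution in Mueller–Hinton broth: compounds two-fold serially diluted from a 2560 μg/mL stock (1% DMSO), inoculum 5×10^5 CFU/mL final from log-phase cultures, incubation 37 °C for 24 h. MIC taken as the lowest concentration inhibiting growth.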

E. coli ATCC 25922 = experiment: MIC, broth microdilution; assay type: cell-based; conditions: Escherichia coli
Procedure, shortened: as §1

E.coli CMCC 44103 = experiment: MIC, broth microdilution; assay type: cell-based; conditions: Escherichia coli
Procedure, shortened: as §1

[1] = system: Methicillin-resistant S. aureus ATCC 33591; experiment: MIC, broth microdilution; assay type: cell-based; conditions: Staphylococcus aureus, ATCC 33591 / MRSA, read-out: Minimum inhibitory concentration MRSA^b
Procedure, shortened: as §1

[2] = system: Methicillin-resistant S. aureus ATCC 43300; experiment: MIC, broth microdilution; assay type: cell-based; conditions: Staphylococcus aureus, ATCC 43300 / MRSA, read-out: Minimum inhibitory concentration MRSA^c
Procedure, shortened: as §1

[3] = system: Methicillin-resistant S. epidermidis ATCC 51625; experiment: MIC, broth microdilution; assay type: cell-based; conditions: Staphylococcus epidermidis, ATCC 51625 / MRSE, read-out: Minimum inhibitory concentration MRSE^e
Procedure, shortened: as §1

S. aureus ATCC 29213 = experiment: MIC, broth microdilution; assay type: cell-based; conditions: Staphylococcus aureus
Procedure, shortened: as §1

S. enterica ATCC14028 = experiment: MIC, broth microdilution; assay type: cell-based; conditions: Salmonella enterica
Procedure, shortened: as §1

MRSA (ATCC 33591) [4] = experiment: Intracellular and extracellular ATP concentration; assay type: cell-based, S. aureus
Method: The intracellular and extracellular ATP levels refer to the concentration of ATP inside and outside the cell. Under normal physiological conditions, ATP is mainly produced inside the cell and released outside the cell when needed. This dynamic change is very important for maintaining normal biological homeostasis.
Determine the intracellular ATP concentration using the ATP assay kit:
Secondly, the bacterial suspension was treated with different concentrations of compound i, and a blank control group was set up. Next, the samples were incubated at 37° C. and the cells were lysed by ultrasound to extract ATP. After that, the supernatant was collected by high-speed centrifugation and ATP detection was performed, which involved adding the detection solution and compound to a 96-well plate and using a reader to measure the light intensity. Finally, data analysis and statistics were performed to evaluate the effects of the compound by comparing the ATP levels of different treatment groups.

MRSA (ATCC 33591) [5] = experiment: Bacterial extracellular conductivity; assay type: cell-based, S. aureus; conditions: 1×MIC and 2×MIC, vs blank control
Description: Changes in conductivity can reflect the permeability and integrity of the cell membrane. When the cell membrane is damaged or the permeability increases, the flow of ions inside and outside the cell will increase, resulting in an increase in conductivity. In the fields of biology and cell biology, conductivity measurements are often used to assess changes in cell membrane integrity.
MRSA and E. coli cells in the logarithmic growth phase were first resuspended after high-speed centrifugation and repeated PBS buffer washing and adjusted to the appropriate optical density. Next, different concentrations of compound i (1×MIC and 2×MIC) were added to the cell suspension, and a blank control group was set. All samples were incubated at 37° C. and sampled at set time points (0, 1, 2, 4, 6, and 8 hours). […] This series of operations helps to reveal the specific mechanism of action of compound i on bacterial growth and cell structure.

## C=C[C@]1(C)C[C@@H](OC(=O)CSc2nc3cc[n+](Cc4ccc(C)cc4)cc3[nH]2)[C@]2(C)[C@H](C)CC[C@]3(CCC(=O)[C@H]32)[C@@H](C)[C@@H]1O [Compound i, 5-(4-methylbenzyl)-2-((2-(((3aR,4R,5R,7S,8S,9R,9aS,12R)-8-hydroxy-4,7,9,12-tetramethyl-3-oxo-7-vinyldecahydro-4,9a-propancyclopenta[8]cyclo-5-yl)oxy)-2-oxoethyl)thio)-3H-imidazo[4,5-C]pyridine-5-ium]
A. baumannii ATCC 19606; ATCC19606, A. baumannii ATCC 19606, read-out: Minimum inhibitory concentration A.b.^f
  MIC: 0.25 µg/mL
E. coli ATCC 25922; ATCC25922, E. coli ATCC 25922, read-out: Minimum inhibitory concentration E.c.^h
  MIC: 0.125 µg/mL
E.coli CMCC 44103; CMCC44103, E.coli CMCC 44103, read-out: Minimum inhibitory concentration E.c.^i
  MIC: 0.125 µg/mL
[1]; Methicillin-resistant S. aureus ATCC 33591
  MIC: 0.125 µg/mL
[2]; Methicillin-resistant S. aureus ATCC 43300
  MIC: 0.0625 µg/mL
[3]; Methicillin-resistant S. epidermidis ATCC 51625
  MIC: 0.0625 µg/mL
S. aureus ATCC 29213; ATCC29213, S. aureus ATCC 29213, read-out: Minimum inhibitory concentration S.a.^d
  MIC: 0.0625 µg/mL
S. enterica ATCC14028; S. enterica ATCC14028, read-out: Minimum inhibitory concentration S.e.^g
  MIC: 0.25 µg/mL
MRSA (ATCC 33591) [4]; 1×MIC
  extracellular fluorescence intensity (ATP) increased by: 3.27 times
  intracellular fluorescence intensity (ATP) decreased by: 51.92%
MRSA (ATCC 33591) [4]; 2×MIC
  extracellular fluorescence intensity (ATP) increased by: 2.28 times
  intracellular fluorescence intensity (ATP) decreased by: 74.76%
MRSA (ATCC 33591) [5]
  extracellular conductivity: increased

## C=C[C@]1(C)C[C@@H](OC(=O)CS[C@@H]2C[C@H]3CC[C@@H](C2)N3C)[C@]2(C)[C@H](C)CC[C@]3(CCC(=O)[C@H]32)[C@@H](C)[C@@H]1O [Retapamulin, reference compound]
A. baumannii ATCC 19606; ATCC19606, read-out: Minimum inhibitory concentration A.b.^f
  MIC: 4 µg/mL (≈ 7.73 µM)
E. coli ATCC 25922; ATCC25922, read-out: Minimum inhibitory concentration E.c.^h
  MIC: 32 µg/mL (≈ 61.8 µM)
E.coli CMCC 44103; CMCC44103, read-out: Minimum inhibitory concentration E.c.^i
  MIC: 32 µg/mL (≈ 61.8 µM)
[1]
  MIC: 32 µg/mL (≈ 61.8 µM)
[2]
  MIC: 16 µg/mL (≈ 30.9 µM)
[3]
  MIC: 32 µg/mL (≈ 61.8 µM)
S. aureus ATCC 29213; ATCC29213, read-out: Minimum inhibitory concentration S.a.^d
  MIC: 4 µg/mL (≈ 7.73 µM)
S. enterica ATCC14028; ATCC14028, read-out: Minimum inhibitory concentration S.e.^g
  MIC: 128 µg/mL (≈ 247 µM)
